Assay results as given in patent US7173021B2, “Synthesis of temozolomide esters as potent anticancer pro-drugs for topical and transdermal applications in treatments of cancers” (Tianjin North Pharm Sci-Tech Co., Ltd., priority 2004, dated 2007).
≈ marks a conversion by molar mass, not a printed value.

Assays:
[1] = Solubility in 10% v/v propylene glycol; format: physicochemical; settings: ambient conditions, stirred 5 hours; for solubility at 5 h: 10% v/v propylene glycol aqueous solution, aqueous with cosolvent or surfactant or cyclodextrin, thermodynamic from solid, read-out: Solubility, Concentration
Method: The potential of temozolomide esters used as topical and transdermal prodrugs is first proven through studies of their solubility. That is a decreased trend of solubility in an aqueous solution with increase of the length of the ester hydrocarbon alkyl chain of the temozolomide esters. It is clear the solubility constantly decreases from the methyl ester to the octyl ester, while temozolomide itself is 3.0 mg/ml similar to that of the methyl ester. […] Similarly to the esters, the solubility of the temozolomide amide products in the aqueous solution is considerably lower than that of temozolomide.
The solubility of temozolomide and the temozolomide esters was determined in 10% v/v propylene glycol by stirring an excess of the solid products at room temperature for 5 hours. The mixtures were then filtered, diluted with sample solvent and analysed using HPLC.

[2] = In vitro permeation, Franz diffusion cell, silicone membrane; format: in vitro ADME; settings: 37° C., 8 h, FIGS. 3-5
Description: Jacketed Franz-type diffusion cells were used throughout the study and the barrier (12) (skin or silicone membrane) was mounted between the two chambers (14, 16) (2.8–3.4 cm^2 available surface area) with the dermal side in contact with the receiver solution (FIG. 2). The diffusion chambers (10) comprised a barrier of skin or silicone membrane (12) mounted between two chambers (14, 16). A cap (18) formed the donor compartment (14). The second receptor compartment (16) contained a receptor cell (20) with a stirring bar (22), sampling port (24) and cover (26). The stirring bar (22) was stirred by means of a magnet plate (28) having a rotating magnet. The receptor compartment comprised a water jacket (30) having a water inlet (32) and a water outlet (34).
Three types of materials were used in permeation studies. • 1. Silicone membrane (Silastic Medical Grade, 500-5, Dow Corning 0.005 in thick) was cut into circular sections (2 cm diameter) and washed with double distilled water prior to use. • 2. Full-thickness rat skin was obtained from Male Wistar rats aged 10 to 12 weeks and weighing 250 to 300 g, which were sacrificed by cervical dislocation, the abdomen shaved and the intact skin removed by dissection. Following removal of fat tissue, the skin was cut into circular pieces and used immediately. • 3. Samples of adult human epidermis were purchased from the Stephen Kirby Skin Bank (UK). The samples were from the leg, were stored at −18° C. and used within one week. Experiments
The membrane (as detailed above) was mounted on the diffusion cell (10), on which the surface area available for diffusion of each cell was about 2.8–3.4 cm^2. The cell cap (18) was placed on the membrane (12), and it was sealed with Parafilm® connecting the cell cap, membrane, and receptor cell. The capacity of each receptor cell was around 25–26 ml, which was filled with receptor solution and was completely in contact with the membrane sheet. During the course of experiment, the solution was continuously stirred by teflon-coated magnetic bar (22) placed in the cell (20). The temperature was maintained at 37° C. by a thermostatic water pump that circulated the water through the jacket (30) surrounding the cell body. The system was allowed to equilibrate under these conditions for half an hour. Finally, the prepared sample solution (2 ml) was added into the donor cap cell, and it was sealed with Parafilm® to minimize the evaporation of donor solution. 1 ml of receptor solution was removed every 30 minutes for 5 hours and then every 60 minutes for a further 3 hours. The volumes withdrawn were always replaced with equal volumes of fresh receptor solution to maintain constant volume. The concentration of each sample solution was determined by using HPLC.
For every sample, six determinations were performed on human and rat skin, and three determinations were carried out through artificial silicone membrane.
As stated above, after the removal of receptor solution, the receiver compartment was refilled with an identical volume of receptor fluid. This causes of the dilution of receptor solution leading to an under determination of the sample concentration. As a consequence, it was necessary to mathematically correct each successive sample concentrations, in the present invention, which was determined by applying the following equation:
[formula] where Ct is the actual current concentration of drug in the receptor phase at time t, Cmt is the apparent (i.e. measured) current concentration of drug in the receptor phase, Vs is the sample volume withdrawn for analysis, Vr is the volume of receptor solution, and ΣCm is the summed total of the previous measured concentrations.
Finally, the amount of drug penetrating the skin per unit area was calculated by dividing the obtained concentrations by the surface area available for diffusion cell and this value was different for each individual cell. […]

MV3 (human melanoma) = assay: In vitro tumour cell growth inhibition (MTT), MV3; format: cell-based; settings: Table 2 experiment (separate), 96 h
Method: (§1) Temozolomide (white powder), temozolomide acid (white powder) and temozolomide-8-carboxylate hexyl (white scale crystal) were made in house. For the estimation of in vitro tumour cell growth inhibition, MV3 (human melanoma), M14 (human melanoma), B16 and B16-BL6 (mouse melanoma), SHG-44, TJ899 and TJ905 (human glioma), MCF-7 (human breast), HCT-8 (human colon), A549 (human non small lung), Bel7402 (human hepatocellulor), and BGC-823 (human stomach) were used. All tumour cells were cultured in RPMI-1640 medium supplemented with 10% fetal bovine serum (FBS) at 37° C. in a humidified 5% CO2 incubator.
(§2) After being harvested from culture flasks, a cell suspension of 1×10^4/ml was made by using 1640 RPMI medium supplemented with 10% fetal bovine serum. 100 μl (contains 1000 tumour cells) of the cell suspension was seeded per well of 96-well flat-bottom Costar culture plates at 37° C. in a humidified 5% CO2 incubator for 24 hrs before introducing drugs. Each tested compounds was made for five different concentrations and 100 μl of the each concentration was introduced into parallel three wells; control wells were added with 100 μl of plain medium alone; fluorouracil (a chemotherapeutic antitumour drug) was used as the positive control. Cells were then incubated for 96 h. Proliferative response and cell death were determined using MTT (3-(4,5-dimethylthiazolyl)-2,5-diphenyl-tetrazolium bromide) assay.
(§3) MTT assay: Following incubation of cells with the tested compounds for 96 h, 100 μl of 0.4 mg/ml MTT in RPMI 1640 was added to each well and the plate was incubated at 37° C. for 4 h. The plate was then centrifuged and followed by removal of medium. 150 μl of DMSO was then added to dissolve formazan crystal. DMSO-added plates were placed on a plate shaker for 5 min and absorbance was measured spectrophotometrically at 540 nm (with reference wavelength at 450 nm) using a Benchmark microtiter plate reader (Bio-Rad 550, Bio-Rad Laboratories, CA, U.S.A.).
(§4) The IC50 was calculated from the curve of the tested compound concentrations against the inhibition rate of the tumour cells. Table 1 summarized the experiment results by using six human cancer cell lines, HCT-8 (colon carcinoma), A549 (non small lung carcinoma), MCF-7 (breast), Bel7402 (hepatocellulor carcinoma), BGC-823 (stomach adenocarcinoma), and MV3 (melanoma). Table 2 summarized the results from the experiment results by using two human melanoma cell lines, MV3 and M14, two mouse melanoma cell lines, B16 and B16-BL6, and three human glioma cell lines, TJ899, SHG-44 and TJ905.

M14 (human melanoma) = assay: In vitro tumour cell growth inhibition (MTT), M14; format: cell-based; settings: Table 2 experiment, 96 h
Method: as §1, §2, §3, §4

B16 (mouse melanoma) = assay: In vitro tumour cell growth inhibition (MTT), B16; format: cell-based; settings: Table 2 experiment, 96 h
Method: as §1, §2, §3, §4

B16-BL6 (mouse melanoma) = assay: In vitro tumour cell growth inhibition (MTT), B16-BL6; format: cell-based; settings: 96 h
Method: as §1, §2, §3, §4

TJ899 (human glioma) = assay: In vitro tumour cell growth inhibition (MTT), TJ899; format: cell-based; settings: Table 2 experiment, 96 h
Method: as §1, §2, §3, §4

SHG-44 (human glioma) = assay: In vitro tumour cell growth inhibition (MTT), SHG-44; format: cell-based; settings: 96 h
Method: as §1, §2, §3, §4

TJ905 (human glioma) = assay: In vitro tumour cell growth inhibition (MTT), TJ905; format: cell-based; settings: Table 2 experiment, 96 h
Method: as §1, §2, §3, §4

CCCCOC(=O)c1ncn2c(=O)n(C)nnc12 [Temozolomide n-butyl ester, n-Butyl 3,4-dihydro-3-methyl-4-oxoimidazo[5,1-d]-1,2,3,5-tetrazine-8-carboxylate]
solubility at 5 h [1]: 1400 µg/mL (≈ 5570 µM)
Permeation through synthetic silicone membrane [2]: passed through the membrane far more efficiently

CCCOC(=O)c1ncn2c(=O)n(C)nnc12 [Temozolomide n-propyl ester, n-Propyl 3,4-dihydro-3-methyl-4-oxoimidazo[5,1-d]-1,2,3,5-tetrazine-8-carboxylate]
solubility at 5 h [1]: 2000 µg/mL (≈ 8430 µM)
Permeation through synthetic silicone membrane [2]: passed through the membrane far more efficiently

CN(C)/N=N/c1[nH]cnc1C(N)=O [Darcabazine]
IC50 MV3 (MV3 (human melanoma)): 0.647 µg/mL (≈ 3.55 µM)
IC50 M14 (M14 (human melanoma)): 0.558 µg/mL (≈ 3.06 µM)
IC50 B16 (B16 (mouse melanoma)): 10.000 µg/mL (≈ 54.9 µM)
IC50 B16-BL6 (B16-BL6 (mouse melanoma); Table 2 experiment): 61.765 µg/mL (≈ 339 µM)
IC50 TJ899 (TJ899 (human glioma)): 5.600 µg/mL (≈ 30.7 µM)
IC50 SHG-44 (SHG-44 (human glioma); Table 2 experiment): 1.261 µg/mL (≈ 6.92 µM)
IC50 TJ905 (TJ905 (human glioma)): 6.860 µg/mL (≈ 37.7 µM)

O=NN(CCCl)C(=O)NCCCl [Carmustine]
IC50 (MV3 (human melanoma); Homo sapiens): 6.35 µg/mL (≈ 29.7 µM)
IC50 (M14 (human melanoma); Homo sapiens): 28.7 µg/mL (≈ 134 µM)
IC50 (B16 (mouse melanoma); Mus musculus): 7.75 µg/mL (≈ 36.2 µM)
IC50 (B16-BL6 (mouse melanoma); Mus musculus, B16-BL6, Table 2 experiment): 13.1 µg/mL (≈ 61.3 µM)
IC50 (TJ899 (human glioma); Homo sapiens): 54.2 µg/mL (≈ 253 µM)
IC50 (SHG-44 (human glioma); Homo sapiens, SHG-44, Table 2 experiment): 7.2 µg/mL (≈ 33.6 µM)
IC50 (TJ905 (human glioma); Homo sapiens): 67.3 µg/mL (≈ 314 µM)

CCC(C)NC(=O)c1ncn2c(=O)n(C)nnc12 (stereo not shown) [Temozolomide sec-butyl amide]
Solubility, Concentration [1]: 1800 µg/mL (≈ 7190 µM)
